System: ovalbumin-induced bronchospasm
Test: Ovalbumin-induced bronchospasm (modified Konzett-Rössler) in sensitized anaesthetized guinea pigs
Type: in vivo
Method: Male and female Dunkin-Harley guinea pigs were obtained from the Experimental Animal Breeding Centre of Harlan Winkelmann (Germany). After fasting overnight, but with free access to drinking water, animals with body weight of 400-500 g were used.
Bronchospasm was recorded with a modified version of the method of Konzett-Röβler (described by Walland et al, in “Compensation of muscarinic bronchial effects of talsaclidine by concomitant sympathetic activation in guinea pigs”, European Journal of Pharmacology, Volume 330, Issue 2-3, 9 Jul. 1997, Pages 213-219). The animals were ventilated by means of a piston pump (starling ventilator, Hugo Sachs Elektronik, Germany) at a stroke volume of 1 ml/100 g body weight and at a rate of 60 strokes per min. The tubing which connected the tracheal cannula with the ventilator was provided with a branch leading to the bronchospasm transducer (bronchospasm transducer 7020, Ugo Basile, Italy). The air flow measurement is based on the hot wire anemometer principle. Any air flow will reduce the temperature of the wire, thereby decreasing its resistance in proportion of the flow. As the wire element is one arm of a Weaststone bridge, variation in resistance generate a proportional voltage output which feeds the amplifier/recording system (Notocord-hem, Notocord, France). Blood pressure and heart rate are monitored from a carotid artery in order to check the anesthesia and the variability of the preparation.
Guinea pigs were sensitized on 2 consecutive days with 20 μg ovalbumin (OVA) (Sigma, St. Louis, Mo.) and 20 mg Al(OH)3 in 0.5 ml saline, which were administered subcutaneously. Experiments, which included OVA challenge, were conducted 2 weeks after sensitization. Approximately 1 hour before OVA challenge, the animals were anaesthetized with an intraperitoneal injection of 50 mg/kg pentobarbital. Anesthesia was prolonged by intravenous infusion of pentobarbital (15 mg/kg/h) via the jugular vein. A tracheal cannula was introduced after tracheotomy for artificial ventilation. The internal jugular vein was cannulated for drug injection while the left carotid artery was cannulated for measuring blood pressure and heart rate. 30 minutes after the beginning of air flow and blood pressure measurements, bronchoconstriction is triggered by an OVA challenge given at a fixed dose of 50 μg/kg inhaled.
The test compounds or combinations of compounds were administered orally 2 hours before the OVA challenge.
The control group comprises 12 guinea-pigs, test compounds comprise 2 to 4 guinea-pigs.
Bronchoprotection of the drug (i.e. inhibition of OVA broncho-constriction) is expressed as a percentage of inhibition of the increase in overflow induced by OVA in the control animals.

[1] = Pyrilamine 2.0 mg/kg p.o. alone (CRTH2 antagonist (1) 0.0)
[2] = Desloratidine 2.0 mg/kg p.o. alone (CRTH2 antagonist (1) 0.0)
[3] = Fexofenadine 0.5 mg/kg p.o. alone (CRTH2 antagonist (1) 0.0)

COc1ccc(CN(CCN(C)C)c2ccccn2)cc1 [Pyrilamine, reference compound] gave a bronchoprotection [1] of 45% and an overflow [1] of 33 mL.

With Clc1ccc2c(c1)CCc1cccnc1C2=C1CCNCC1 [Desloratidine, reference compound] the bronchoprotection [2] was 43% and the overflow [2] was 34 mL.

In the case of CC(C)(C(=O)O)c1ccc(C(O)CCCN2CCC(C(O)(c3ccccc3)c3ccccc3)CC2)cc1 (stereo not drawn) [Fexofenadine, reference compound], the bronchoprotection [3] is reported as 35% and the overflow [3] is reported as 39 mL.

Work on CN(C)c1nc(Cc2ccc(NC(=O)c3ccc(C(F)(F)F)cc3)cc2)nc(N(C)C)c1CC(=O)O [CRTH2 antagonist (1), [4,6-bis(dimethylamino)-2-(4-(4-(trifluoromethyl)benzamido)benzyl)pyrimidin-5-yl]-acetic acid] yielded an overflow (CRTH2 antagonist (1) 0.01 mg/kg p.o. alone, 2 hours before OVA challenge) of 63 mL, an overflow (CRTH2 antagonist (1) 0.03 mg/kg p.o. alone, 2 hours before OVA challenge) of 65 mL and an overflow (CRTH2 antagonist (1) 0.10 mg/kg p.o. alone, 2 hours before OVA challenge) of 69 mL. It also gave an overflow (CRTH2 antagonist (1) 0.30 mg/kg p.o. alone, 2 hours before OVA challenge) of 60 mL, an overflow (CRTH2 antagonist (1) 1.00 mg/kg p.o. alone, 2 hours before OVA challenge) of 65 mL and an overflow (CRTH2 antagonist (1) 3.00 mg/kg p.o. alone, 2 hours before OVA challenge) of 61 mL. The overflow (CRTH2 antagonist (1) 10.00 mg/kg p.o. alone, 2 hours before OVA challenge) was 65 mL, the “effect in this assay by itself” value (alone, conclusion) was “no effect” and the “effect by itself on the ovalbumin-induced bronchospasm” value (up to 10 mg/kg p.o., alone) was “no effect”.

Source: patent publication US20120190691A1, “PHARMACEUTICAL COMPOSITIONS FOR TREATMENT OF RESPIRATORY AND INFLAMMATORY DISEASES” (priority 2010, published 2012)
